Consider 1 compound from publication PMC8032624, “Prediction of dose-dependent in vivo acetylcholinesterase inhibition by profenofos in rats and humans using physiologically based kinetic (PBK) modeling-facilitated reverse dosimetry” (Archives of Toxicology, 2021).

This experiment has as its target AChE (Homo sapiens, UniProt P22303). Description: AChE inhibition by BCP. The format is biochemical.

Chain of AChE (P22303 32-614): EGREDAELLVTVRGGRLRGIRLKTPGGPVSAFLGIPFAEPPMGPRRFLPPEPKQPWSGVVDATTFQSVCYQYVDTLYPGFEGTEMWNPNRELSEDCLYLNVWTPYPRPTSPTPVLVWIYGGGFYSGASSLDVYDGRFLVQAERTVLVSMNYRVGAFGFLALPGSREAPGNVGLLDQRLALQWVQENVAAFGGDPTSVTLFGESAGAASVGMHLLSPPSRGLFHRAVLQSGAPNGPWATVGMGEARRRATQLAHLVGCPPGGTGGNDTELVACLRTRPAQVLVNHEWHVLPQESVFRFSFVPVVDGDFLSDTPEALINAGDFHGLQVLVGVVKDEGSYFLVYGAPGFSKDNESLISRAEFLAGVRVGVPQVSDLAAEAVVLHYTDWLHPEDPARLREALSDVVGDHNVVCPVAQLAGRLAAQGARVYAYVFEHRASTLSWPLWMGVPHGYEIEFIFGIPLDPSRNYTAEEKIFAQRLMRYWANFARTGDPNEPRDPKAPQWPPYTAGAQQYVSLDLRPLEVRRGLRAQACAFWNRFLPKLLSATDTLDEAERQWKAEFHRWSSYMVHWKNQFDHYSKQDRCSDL

`Oc1ccc(Br)cc1Cl` [BCP, 4-bromo-2-chlorophenol]: the AChE inhibition result is reported as “not inhibit AChE”.
